Legend:
Assay type in all cases: cell-based
[1] = system: Normal WI38 (NSC); test: Viability of normal WI38 cells (NSC), 72 h, PI staining and flow cytometry; conditions: Homo sapiens, WI-38, viable (PI-) cells as percentage of vehicle control
Experimental: (§1) Normal WI38 (NSC) and IR-induced senescent WI38 cells (IR-SC) were incubated with vehicle or increasing concentrations of compounds of Formula (I) or Formula (II) for 72 hours. The cells were digested with 0.25% trypsin and 1 mM EDTA, and harvested in PBS containing 2% FBS. After incubation with propidium iodide (PI, 100 ng/ml) in PBS at room temperature for 1 minute, cells were centrifuged at 1,200 rpm for 6 minutes to remove PI and then resuspended in PBS containing 2% FBS for analysis using a flow cytometer. Viable cells (PI-cells) were analyzed by flow cytometry at a constant flow rate to count the number of cells and calculated as a percentage of control cells treated with vehicle. Table 1 depicts the EC50 values of the compounds of Formula (I) and compounds of Formula (II) against normal WI38 and IR-induced senescent WI38.

[2] = system: IR-induced senescent WI38 cells (IR-SC); test: Viability of IR-induced senescent WI38 cells (IR-SC), 72 h, PI staining and flow cytometry
Experimental: as §1

[3] = system: RS4; 11 cancer cells; test: Cancer cell viability by MTS, 72 h, RS4;11; conditions: Homo sapiens, RS4;11 cells
Experimental: (§2) RS4; 11 and NCI-H146 cancer cells were incubated with vehicle or increasing concentrations of compounds of Formula (I) and Formula (II). At 72 hours post-treatment cell viability was measured by MTS and EC50 was calculated as a percentage of control cells treated with vehicle. Table 1 depicts the EC50 values of compounds of Formula (I) and Formula (II) against RS4; 11 and NCI-H146.

[4] = system: NCI-H146 cancer cells; test: Cancer cell viability by MTS, 72 h, NCI-H146; conditions: Homo sapiens
Experimental: as §2

[5] = target: T1, Bcl-xL (Homo sapiens, UniProt Q07817); test: Protein degradation assay (Western blot) in IR-SC WI38 cells; conditions: 2 μM; FIG. 1
T1 construct: endogenous in cells; host or cells: WI38 cells (normal NC-WI38 and ionizing-radiation-induced senescent IR-SC WI38)
T1 sequence (Q07817 whole entry): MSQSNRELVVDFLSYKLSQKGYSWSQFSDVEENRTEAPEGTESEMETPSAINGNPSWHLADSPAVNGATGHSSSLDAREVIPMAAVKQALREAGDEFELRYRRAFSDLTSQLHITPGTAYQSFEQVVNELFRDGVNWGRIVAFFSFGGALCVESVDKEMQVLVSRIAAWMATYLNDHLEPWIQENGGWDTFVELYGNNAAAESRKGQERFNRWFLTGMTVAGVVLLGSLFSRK
Experimental: IR-SC WI38 cells were incubated with vehicle or increasing concentrations of XZ-14439 for 18 hours at increasing […] (FIG. 3A) and at a fixed concentration of XZ-14439 for increasing times (FIG. […]). The cells were digested with 0.25% trypsin and 1 mM EDTA, and harvested in RIPA lysis buffer with 1% Phosphatase Inhibitor Cocktail 3 and 1% Protease Inhibitor Cocktail. An equal amount of protein (15-30 μg/lane) from each cell extract was resolved on a 12% SDS-PAGE gel. Proteins were blotted onto a NOVEX PVDF membrane by electrophoresis. The membranes were blocked with TBS-T blocking buffer (5% nonfat milk in 25 mM Tris-HCL, pH 7.4; 3 mM KCl; […] NaCl; and 0.05% Tween) and probed with primary antibodies (at a predetermined optimal concentration) overnight at 4° C. or for 1 hour at room temperature. After extensive washing with TBS-T, the membranes were incubated with an appropriate peroxidase-conjugated secondary antibody for 1 hour at room temperature. After three washes with TBS-T, the proteins of interest were detected with ECL Western Blotting Detection Reagents and recorded with autoradiography (Pierce Biotech, Rockford, Ill., USA). The primary antibody Bcl-x (#2762), Bcl-2 antibody (#2872S) and β-actin (13E5, #4970) were purchased from Cell Signaling.
IR-SC WI38 (FIG. 4A) and RS4; 11 (FIG. 4B) cells were incubated with vehicle or increasing concentrations of compounds of Formula (I) or Formula (II) for 6 or 16 hours, at 1 μM (FIG. 4A) and 100 nm (FIG. 4B), respectively. The cells were harvested in RIPA lysis buffer with 1% Phosphatase Inhibitor Cocktail 3 and 1% Protease Inhibitor Cocktail. An equal amount of protein (15-30 μg/lane) from each cell extract was resolved on a 12% SDS-PAGE gel. Proteins were blotted onto a NOVEX PVDF membrane by electrophoresis. The membranes were blocked with TBS-T blocking buffer (5% nonfat milk in 25 mM Tris-HCL, pH 7.4; 3 mM KCl; 140 mM NaCl; and 0.05% Tween) and probed with primary antibodies (at a predetermined optimal concentration) overnight at 4° C. or for 1 hour at room temperature. After extensive washing with TBS-T, the membranes were incubated with an appropriate peroxidase-conjugated secondary antibody (Jackson ImmunoResearch Europe, Suffolk, UK) for 1 hour at room temperature. After three washes with TBS-T, the proteins of interest were detected with ECL Western Blotting Detection Reagents and recorded with autoradiography. The primary antibody Bcl-xl (#2762), Bcl-2 antibody (#2872S), Bcl-w (#2724S), Mcl-1 (#5453s) and β-actin (13E5, #4970) were purchased from Cell Signaling.

[6] = target: T1, Bcl-xL; test: Bcl-xL depletion in normal WI38 (NC-WI38) cells; conditions: 2 μM; FIG. 1

EC50 [3]: > 2 µM | EC50 [4]: > 2 µM | Bcl-xL depletion in IR-SC WI38 cells [5]: depletes Bcl-xL | Bcl-xL depletion in normal WI38 (NC-WI38) [6]: depletes Bcl-xL
Structure (SMILES): O=C1CCC(N2C(=O)c3cccc(NCCOCCOCCOCc4cn(CCCC(=O)N5CCN(CC#Cc6ccc(OCCCc7sc(N8CCc9cccc(C(=O)Nc%10nc%11ccccc%11s%10)c9C8)nc7C(=O)O)c(F)c6)CC5)nn4)c3C2=O)C(=O)N1 (stereo not shown) [XZ-13906, 2-(8-(benzo[d]thiazol-2-ylcarbamoyl)-3,4-dihydroisoquinolin-2(1H)-yl)-5-(3-(4-(3-(4-(4-(4-((2-(2-(2-(2-(2,6-dioxopiperidin-3-yl)-1,3-dioxoisoindolin-4-ylamino)ethoxy)ethoxy)ethoxy)methyl)-1H-1,2,3-triazol-1-yl)butanoyl)piperazin-1-yl)prop-1-ynyl)-2-fluorophenoxy)propyl)thiazole-4-carboxylic acid]
EC50 [1]: 100 µM | EC50 ([2]; Homo sapiens, WI-38, IR-induced senescent WI38 cells, 72 hours, viable (PI-) cells as percentage of vehicle control): 2.4 µM | Ratio NSC/SC ([2]; ratio of WI38 EC50 in NSC to EC50 in IR-SC): 41.67

Source: US11319316B2, “Compounds that induce degradation of anti-apoptotic Bcl-2 family proteins and the uses thereof” (BioVentures, LLC, priority 2016, dated 2022)
